Assay [1] addresses T1, recombinant N-terminal GST-tagged human Rho kinase 2 (ROCK2, amino acids 1-552) (Homo sapiens, UniProt O75116).
T1 construct: ROCK2, amino acids 1-552; purchased Invitrogen Inc. PV3759
The experiment in a line: In vitro Rho kinase assay (luciferase-based ATP consumption), ROCK2. The assay is classed as biochemical. Summed up:
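Luciferase-based luminescence of leftover ATP after 2 h at 30 °C, where inhibition raises signal, reports activity of GST-tagged ROCK2 (aa 1-552) at 0.82 μg/ml. Conditions: S6 peptide 100 μg/ml, […], pH 7.5 Tris buffer. Results given as percent of H-1152P control activity.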

The target in assay [2] is T2, recombinant N-terminal GST-tagged human Rho kinase 1 (ROCK1, amino acids 1-535) (Homo sapiens, UniProt Q13464).
T2 construct: ROCK1, amino acids 1-535; purchased Invitrogen Inc. PV-3691
T2 sequence (Q13464 1-535): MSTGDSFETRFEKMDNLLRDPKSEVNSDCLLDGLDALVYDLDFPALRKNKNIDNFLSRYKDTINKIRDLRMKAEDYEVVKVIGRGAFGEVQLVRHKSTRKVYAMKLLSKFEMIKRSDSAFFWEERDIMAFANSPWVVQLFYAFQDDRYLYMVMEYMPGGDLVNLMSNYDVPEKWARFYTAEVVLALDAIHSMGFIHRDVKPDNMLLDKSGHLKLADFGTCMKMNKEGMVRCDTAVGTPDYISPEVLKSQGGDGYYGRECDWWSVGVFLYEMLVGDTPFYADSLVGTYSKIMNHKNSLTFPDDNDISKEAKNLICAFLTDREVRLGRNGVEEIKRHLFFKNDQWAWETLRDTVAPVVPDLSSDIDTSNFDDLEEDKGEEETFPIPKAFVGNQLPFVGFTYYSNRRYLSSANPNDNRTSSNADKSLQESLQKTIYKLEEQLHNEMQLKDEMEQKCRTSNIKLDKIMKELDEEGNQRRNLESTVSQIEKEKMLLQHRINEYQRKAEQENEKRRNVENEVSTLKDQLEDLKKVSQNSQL
Put plainly: In vitro Rho kinase assay (luciferase-based ATP consumption), ROCK1. The assay is classed as biochemical. Summed up:
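ATP depletion measured by firefly luciferase luminescence after 2 h at 30 °C, with inhibition raising signal and activity expressed relative to H-1152P. Reaction: 0.82 μg/ml recombinant GST-tagged ROCK1 (aa 1-535), S6 peptide 100 μg/ml, […], pH 7.5 Tris buffer.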

Setting [3] is: recombinant GST-tagged human ROCK2, luciferase-based ATP consumption, read-out: ROCK2 IC50.
[4] abbreviates: recombinant GST-tagged human ROCK1, luciferase-based ATP consumption, read-out: ROCK1 IC50.
Setting [5] is: ROCK2 IC50, recombinant GST-tagged human ROCK2, luciferase-based ATP consumption.
The mark [6] stands for this setting: ROCK1 IC50, recombinant GST-tagged human ROCK1, luciferase-based ATP consumption.

Where two headings read alike, the source gives them in different places.

T1 sequence (O75116 1-552): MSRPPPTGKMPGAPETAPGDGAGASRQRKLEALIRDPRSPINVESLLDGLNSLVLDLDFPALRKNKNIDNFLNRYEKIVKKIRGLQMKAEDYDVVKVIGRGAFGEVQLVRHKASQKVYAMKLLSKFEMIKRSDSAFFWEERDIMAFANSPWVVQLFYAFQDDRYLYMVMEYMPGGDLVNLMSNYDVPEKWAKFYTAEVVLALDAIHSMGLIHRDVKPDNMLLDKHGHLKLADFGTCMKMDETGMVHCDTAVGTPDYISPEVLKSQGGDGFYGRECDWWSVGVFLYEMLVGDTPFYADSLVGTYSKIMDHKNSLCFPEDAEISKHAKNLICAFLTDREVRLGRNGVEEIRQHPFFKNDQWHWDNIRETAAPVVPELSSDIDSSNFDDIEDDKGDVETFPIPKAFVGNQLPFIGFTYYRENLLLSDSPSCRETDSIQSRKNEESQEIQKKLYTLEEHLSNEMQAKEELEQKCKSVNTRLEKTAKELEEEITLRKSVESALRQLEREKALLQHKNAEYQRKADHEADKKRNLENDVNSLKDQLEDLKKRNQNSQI

By IC50 is commonly meant the concentration that gives 50% inhibition. For the molecule `Cc1cccc(C(=O)NCc2ccc3sc(-c4ccnc(N)n4)c(C)c3c2)c1O` [Example 139, Cc1cccc(C(═O)NCc2ccc3sc(c(C)c3c2)-c4ccnc(N)n4)c1O], the figures for the IC50 in assay [1] (setting [3]) and in assay [2] (setting [4]) were below 5 µM and above 5 µM, respectively.

On to `Cc1c(-c2ccnc(N)n2)sc2ccc(CNC(=O)Cc3cccc(O)c3)cc12` [Example 140, Cc1c(sc2ccc(CNC(═O)Cc3cccc(O)c3)cc12)-c4ccnc(N)n4], for which the IC50 in assay [1] (setting [3]) is below 5 µM; in assay [2] (setting [4]) it was above 5 µM.

In the case of `Cc1ccc(O)c(C(=O)NCc2ccc3sc(-c4ccnc(N)n4)c(C)c3c2)c1` [Example 141, Cc1ccc(O)c(c1)C(═O)NCc2ccc3sc(c(C)c3c2)-c4ccnc(N)n4], the IC50 was below 5 µM in assay [1] (setting [3]) and above 5 µM in assay [2] (setting [4]).

For `Cc1c(-c2ccnc(N)n2)sc2ccc(CNC(=O)c3cc(O)ccc3O)cc12` [Example 142, Cc1c(sc2ccc(CNC(═O)c3cc(O)ccc3O)cc12)-c4ccnc(N)n4], the IC50 in assay [1] (setting [3]) is below 5 µM; in assay [2] (setting [4]) it was above 5 µM.

`Cc1c(-c2ccnc(N)n2)sc2ccc(CNC(=O)c3cccc(O)c3O)cc12` [Example 143, Cc1c(sc2ccc(CNC(═O)c3cccc(O)c3O)cc12)-c4ccnc(N)n4]: the IC50 in assay [1] (setting [3]) was below 5 µM; in assay [2] (setting [4]) it was above 5 µM.

Regarding `Cc1c(-c2ccnc(N)n2)sc2ccc(CNC(=O)c3ccc(O)cc3O)cc12` [Example 144, Cc1c(sc2ccc(CNC(═O)c3ccc(O)cc3O)cc12)-c4ccnc(N)n4], the concentration for half-maximal inhibition (IC50) in assay [1] (setting [3]) is below 5 µM; in assay [2] (setting [4]), above 5 µM.

With `Cc1ccc(C(=O)NCc2ccc3sc(-c4ccnc(N)n4)c(C)c3c2)cc1F` [Example 145, Cc1ccc(cc1F)C(═O)NCc2ccc3sc(c(C)c3c2)-c4ccnc(N)n4], the results for the IC50 in assay [1] (setting [3]) and in assay [2] (setting [4]) were below 5 µM and above 5 µM, respectively.

For the molecule `Cc1ccc(F)cc1C(=O)NCc1ccc2sc(-c3ccnc(N)n3)c(C)c2c1` [Example 146, Cc1ccc(F)cc1C(═O)NCc2ccc3sc(c(C)c3c2)-c4ccnc(N)n4], the IC50 in assay [1] (setting [3]) was below 5 µM; in assay [2] (setting [4]), above 5 µM.

On to `Cc1c(-c2ccnc(N)n2)sc2ccc(CNC(=O)c3ccccc3Cl)cc12` [Example 147, Cc1c(sc2ccc(CNC(═O)c3ccccc3Cl)cc12)-c4ccnc(N)n4], for which the IC50 was below 5 µM in assay [1] (setting [5]) and above 5 µM in assay [2] (setting [6]).

As to `Cc1c(-c2ccnc(N)n2)sc2ccc(CNC(=O)c3ccc(Cl)nc3)cc12` [Example 148, Cc1c(sc2ccc(CNC(═O)c3ccc(Cl)nc3)cc12)-c4ccnc(N)n4], the IC50 in assay [1] (setting [3]) is below 5 µM; in assay [2] (setting [4]) it was above 5 µM.

For `Cc1c(-c2ccnc(N)n2)sc2ccc(CNC(=O)c3cccnc3Cl)cc12` [Example 149, Cc1c(sc2ccc(CNC(═O)c3cccnc3Cl)cc12)-c4ccnc(N)n4], the 50% inhibitory concentration (IC50) was below 5 µM in assay [1] (setting [5]) and above 5 µM in assay [2] (setting [6]).

Turning to `Cc1c(-c2ccnc(N)n2)sc2ccc(CNC(=O)c3ccnc(Cl)c3)cc12` [Example 150, Cc1c(sc2ccc(CNC(═O)c3ccnc(Cl)c3)cc12)-c4ccnc(N)n4], the 50% inhibitory concentration (IC50) in assay [1] (setting [3]) and in assay [2] (setting [4]) was below 5 µM throughout.

`Cc1c(-c2ccnc(N)n2)sc2ccc(CNC(=O)c3cc(Cl)ccn3)cc12` [Example 151, Cc1c(sc2ccc(CNC(═O)c3cc(Cl)ccn3)cc12)-c4ccnc(N)n4]: the IC50 in assay [1] (setting [3]) and in assay [2] (setting [4]) was below 5 µM each time.

Regarding `Cc1c(-c2ccnc(N)n2)sc2ccc(CNC(=O)c3ccncc3Cl)cc12` [Example 152, Cc1c(sc2ccc(CNC(═O)c3ccncc3Cl)cc12)-c4ccnc(N)n4], the IC50 in assay [1] (setting [5]) and in assay [2] (setting [6]) was below 5 µM throughout.

`Cc1c(-c2ccnc(N)n2)sc2ccc(CNC(=O)c3c(F)cccc3F)cc12` [Example 153, Cc1c(sc2ccc(CNC(═O)c3c(F)cccc3F)cc12)-c4ccnc(N)n4]: the IC50 in assay [1] (setting [3]) and in assay [2] (setting [4]) was below 5 µM in each case.

For the molecule `Cc1c(-c2ccnc(N)n2)sc2ccc(CNC(=O)c3cccc(F)c3F)cc12` [Example 154, Cc1c(sc2ccc(CNC(═O)c3cccc(F)c3F)cc12)-c4ccnc(N)n4], the IC50 in assay [1] (setting [3]) is below 5 µM; in assay [2] (setting [4]) it was above 5 µM.

The values are drawn from patent publication US20080021026A1, “BENZOTHIOPHENE INHIBITORS OF RHO KINASE” (priority 2006, published 2008).
